Assays:
Format in all cases: in vivo
[1] = tested on: C57BL/6J mice subjected to ICH; test: Forelimb placing test after ICH; details: 1 mg/kg i.p. 45 minutes prior to ICH, then twice daily; 72 hours after ICH
Procedure: (§1) Animal Preparation and Intracerebral Infusion. Adult male C57BL/6J mice weighing 23-30 g were used. Mice were randomized to receive intraperitoneal injection of either C3aRA (1 mg/kg) (SB290157, Calbiochem, Darmstadt, Germany) diluted in PBS and DMSO (1.16% v/v), or an equal volume of vehicle (PBS and DMSO, 1.16% DMSO v/v) either 45 minutes prior to ICH induction or 6 and 12 hours after induction of ICH, followed in both cohorts by twice daily doses for 72 hours. […] Sham animals were given PBS and DMSO (1.16% v/v) in the same manner.
(§2) Mice were anesthetized with a single intraperitoneal dose of ketamine (90 mg/kg) and xylazine (5 mg/kg). […]
(§3) Neurofunction and behavioral testing. Sensorimotor function was evaluated by means of the 28-point neurological function score, corner test and forelimb placing tests, which were performed pre-operatively and at 6, 24, 48 and 72 hour post-injury. Navigational memory was evaluated with the means of a Morris water-maze (MWM) test pre-operatively and at 72 hours post ICH. […]
Forelimb placing test. […] Each animal was tested 10 times for each forelimb, and the percentage of trials in which the mouse placed the appropriate forelimb on the edge of the table after vibrissae stimulation was determined.

[2] = tested on: C57BL/6J mice subjected to ICH; test: Histopathology, hematoma (lesion) volume after ICH; details: 1 mg/kg i.p. 45 minutes prior to ICH, then twice daily; 72 hours after ICH; mean±SEM
Procedure: as §1
Mice were anesthetized with a single intraperitoneal dose of ketamine (90 mg/kg) and xylazine (5 mg/kg). Next, the mice were placed in a stereotactic frame (ASI Instruments, Inc., Warren, Mich., USA) and subjected to ICH using autologous blood infusion as previously described (Rynkowski M A et al, 2008, Nat Protoc 3: 122-128), Briefly, a 1-mm burr hole was drilled 2.3 mm lateral to the midline and 0.2 mm anterior to the bregma. Thirty μL of autologous whole blood were drawn from the tail artery into a capillary tube. […]
Histopathology and determination of lesion volume. […] Striatal lesion volume was determined by digitizing serial coronal sections ([…]) to span the entire hematoma. […] Volume of the lesion (mm^3) was then determined by summation of the lesion area in each coronal section and integrating over the section depth of 0.5 mm.

[3] = tested on: C57BL/6J mice subjected to ICH; test: Morris water-maze test (MWM) after ICH; details: then twice daily, 72 hours after ICH, mean±SEM
Procedure: as §1, §2, §3
Morris water-maze test (MWM). […] The time, in seconds, spent by each animal to find the platform was recorded. […] The time spent in the quadrant where the platform had been situated before was recorded. […]

## NC(N)=NCCC[C@H](NC(=O)COCC(c1ccccc1)c1ccccc1)C(=O)O [C3aRA]
[1]
  forelimb placing capacity in the impaired limb: no significant deficits compared with sham animals
[2]
  mean hematoma volume: 12.17±1.33 mm^3
[3]; 1 mg/kg i.p. 45 minutes prior to ICH
  MWM time spent in the target quadrant: 19.62 ± 1.08 s
[3]; 1 mg/kg i.p. first at 6 h and 12 h after ICH
  MWM time spent in the target quadrant: 18.9 ± 1.3 s
